Test results taken from ChEMBL document CHEMBL1201862, “PubChem BioAssay data set” (2004).
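Five concentrations, 48 hours, 96-well plates. Here, GI50 denotes the concentration required for 50% inhibition of growth.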 Calls of active or inactive are those of the source. No stated cut-off is given here; in the data, active = GI50 up to about 1.1 µM and inactive = higher.

Experiments:
Assay in all cases: inhibition of tumour cell growth, NCI panel, 48 h
CCRF-CEM = system: CCRF-CEM
COLO 205 = system: COLO 205
DMS-114 = system: DMS-114
EKVX = system: EKVX
NCI-H226 = system: NCI-H226
NCI-H460 = system: NCI-H460
NCI-H522 = system: NCI-H522
OVCAR-4 = system: OVCAR-4
SW-620 = system: SW-620
TK-10 = system: TK-10
U-251 = system: U-251
UACC-62 = system: UACC-62
HCC 2998 = system: HCC 2998
RXF 393 = system: RXF 393
SK-MEL-5 = system: SK-MEL-5
SF-539 = system: SF-539

Measured: GI50

CC(C)(C)C(=O)Cc1cc2c(cc1C(=O)O)S(=O)(=O)NC(C(C)(C)C)=C2
inactive: CCRF-CEM > 100 µM | COLO 205 > 100 µM | DMS-114 > 100 µM | EKVX > 100 µM | NCI-H226 > 100 µM | NCI-H460 > 100 µM | NCI-H522 > 100 µM | OVCAR-4 > 100 µM | SW-620 > 100 µM | TK-10 > 100 µM | U-251 > 100 µM | UACC-62 > 100 µM

Cn1ncc2cc3c(Nc4ccc(Cl)cc4)cccc3nc21
inactive: CCRF-CEM 15.1 µM | COLO 205 13.7 µM | DMS-114 12.9 µM | EKVX 18.1 µM | HCC 2998 21 µM | NCI-H460 8.61 µM | NCI-H522 1.75 µM | OVCAR-4 11.8 µM | RXF 393 6.87 µM | SK-MEL-5 13.1 µM | SW-620 13.9 µM | TK-10 26.9 µM | UACC-62 15.1 µM

COc1ccc(Cc2nccc3cc(OC)c(OC)cc23)cc1
inactive: CCRF-CEM 65.6 µM | COLO 205 > 100 µM | DMS-114 29.7 µM | EKVX > 100 µM | HCC 2998 > 100 µM | NCI-H460 90.6 µM | NCI-H522 37.8 µM | OVCAR-4 36.5 µM | SF-539 > 100 µM | SK-MEL-5 35.7 µM | SW-620 > 100 µM | TK-10 > 100 µM | U-251 > 100 µM | UACC-62 42.2 µM

CCn1c(=O)nc2n(-c3ccccc3)c3ccccc3nc-2c1=O
inactive: CCRF-CEM 21.1 µM | COLO 205 3.85 µM | DMS-114 11.1 µM | EKVX 43.7 µM | HCC 2998 21 µM | NCI-H226 20 µM | NCI-H460 13.3 µM | NCI-H522 26.9 µM | OVCAR-4 12.6 µM | SF-539 14.2 µM | SK-MEL-5 10.4 µM | SW-620 14.4 µM | TK-10 > 100 µM | U-251 17.5 µM | UACC-62 12.7 µM

NC(=O)c1csc(C2OC(COP(=O)(O)CP(=O)(O)OCC3OC(n4cnc5c(N)ncnc54)C(O)C3O)C(O)C2O)n1 (stereo not drawn)
inactive: CCRF-CEM > 100 µM | COLO 205 91.2 µM | DMS-114 > 100 µM | EKVX > 100 µM | HCC 2998 > 100 µM | NCI-H226 > 100 µM | NCI-H460 > 100 µM | NCI-H522 68.1 µM | OVCAR-4 > 100 µM | SF-539 > 100 µM | SK-MEL-5 > 100 µM | SW-620 > 100 µM | TK-10 > 100 µM | U-251 > 100 µM | UACC-62 > 100 µM

Cc1ccc(NC(=O)CCC(=O)C2CC(=O)CC/C2=N\NC(=O)c2cc3ccccc3cc2O)cc1C (stereo not drawn)
inactive: CCRF-CEM 11.5 µM | COLO 205 16.9 µM | DMS-114 19.8 µM | EKVX 29 µM | HCC 2998 18.7 µM | NCI-H226 23 µM | NCI-H460 25.2 µM | NCI-H522 16.6 µM | OVCAR-4 16.4 µM | SF-539 30.1 µM | SK-MEL-5 14.5 µM | SW-620 25.6 µM | TK-10 51.9 µM | U-251 40.1 µM | UACC-62 10.2 µM

CCOC(=O)c1cc2c(cn1)[nH]c1cccc(N)c12
inactive: CCRF-CEM > 100 µM | COLO 205 > 100 µM | DMS-114 > 100 µM | HCC 2998 > 100 µM | NCI-H460 > 100 µM | NCI-H522 > 100 µM | OVCAR-4 > 100 µM | RXF 393 > 100 µM | SF-539 > 100 µM | SK-MEL-5 > 100 µM | SW-620 > 100 µM | TK-10 > 100 µM | U-251 > 100 µM | UACC-62 > 100 µM
